One assay deals with T1, CDK5/p25 (Homo sapiens, UniProt Q00535).
T1 construct: made in house
Kind of assay: In vitro kinase assay CDK5/p25, [γ-33P]ATP, histone H1 substrate. It counts as biochemical. How it is done:
(§1) It was also tested as positive control and its IC50 values were compared to those obtained for the compounds under study.
(§2) Buffer A: MgCl2 (10 mM), 1 mM ethylene glycol-bis(2-aminoethylether)-N,N,N’,N’- tetraacetic acid (EGTA), 1 mM dithiothreitol (DTT), 25 mM Tris-HCl pH 7.5, 50 μg heparin/mL. Buffer B: β-Glycerophosphate (60 mM), 30 mM p-nitrophenylphosphate, 25 mM 3-(N-morpholino) propanesulfonic acid (Mops) (pH 7.2), 5 mM EGTA, 15 mM MgCl2, 1 mM DTT, 0.1 mM sodium vanadate.
(§3) Blank values were substracted and activities expressed in % of the maximal activity, i.e., in the absence of inhibitors. Controls were performed with appropriate dilutions of dimethylsulfoxide (DMSO). IC50 values were calculated from dose-response curves established by Sigma-Plot graphs. The GSK-3, CK1, DYRK1A and CLK1 peptide substrates were obtained from Proteogenix (Oberhausbergen, France).
(§4) CDK5/p25. (Human, recombinant) was prepared as previously described. […] ATP (3000 Ci/mmol; 10 mCi/mL) in a final volume of 30 μL. After 30 min incubation at 30 °C, 25 μL aliquots of supernatant were spotted onto sheets of P81 phosphocellulose paper (Whatman) and 20 s later, the filters were washed eight times (for at least 5 min each time) in a solution of 10 mL phosphoric acid/L of water. The wet filters were counted in the presence of 1 mL ACS (Amersham, UK) scintillation fluid.

The target of the next assay is CK1δ/ε. Kind of assay: In vitro kinase assay CK1δ/ε, CK1-specific peptide substrate. It counts as biochemical, Porcine. As to conditions: 15 μM ATP, 30 min, 30 °C, triplicate; <50% inhibition at 10 μM = IC50 >10 μM. How it is done: as §1, §2, §3, §4
CK1δ/ε. (Porcine brain, native) was assayed as described for CDK5/p25 but using the CK1-specific peptide substrate […]pSAYSITA [37].

The target in assay [1] is T2, DYRK1A (Rattus norvegicus, UniProt Q63470). Put plainly: In vitro kinase assay DYRK1A, Woodtide substrate. It counts as biochemical. How it is done: as §1, §2, §3, §4
For another assay, the target named is GSK-3α/β. Put plainly: In vitro kinase assay GSK-3α/β, GS-1 peptide substrate. The format is biochemical, Porcine. How it is done:
as §1, §2, §3, §4
GSK-3α/β. (Porcine brain, native) was assayed, as described for CDK5/p25 but in buffer A and using a GSK-3 specific substrate (GS-1: […]pSEDEEE) (pS stands for phosphorylated serine).

Assay [2] addresses T3, CLK1 (Homo sapiens, UniProt P49759). The note with it: read-out: CLK1 IC50, 15 μM ATP, 30 min, 30 °C, triplicate.
The target in assay [3] is T3, CLK1. Put plainly: biochemical.
Assay [4] deals with T2, DYRK1A. Put plainly: DYRK1A inhibition of earlier compounds I and II (Figure 2). As to conditions: list of targeted kinases extended for earlier compounds. It counts as biochemical.
In another assay the test system is CDK1. On the set-up: method as in PMID 17981370, PMID 16644220. As to conditions: Figure 2; earlier work; cited from earlier work.
The mark [5] stands for this setting: 15 μM ATP, 30 min, 30 °C, triplicate, <50% inhibition at 10 μM = IC50 >10 μM.
Where [6] appears, read: 15 μM ATP, 30 min, 30 °C, triplicate, <50% inhibition at 10 μM = IC50 >10 μM, read-out: DYRK1A IC50.

Molecules are shown by their SMILES. Read-outs that look alike come from different tables or passages of the source. Where only a bound is given, the exact number is not on record here.

T1 sequence (Q00535 whole entry): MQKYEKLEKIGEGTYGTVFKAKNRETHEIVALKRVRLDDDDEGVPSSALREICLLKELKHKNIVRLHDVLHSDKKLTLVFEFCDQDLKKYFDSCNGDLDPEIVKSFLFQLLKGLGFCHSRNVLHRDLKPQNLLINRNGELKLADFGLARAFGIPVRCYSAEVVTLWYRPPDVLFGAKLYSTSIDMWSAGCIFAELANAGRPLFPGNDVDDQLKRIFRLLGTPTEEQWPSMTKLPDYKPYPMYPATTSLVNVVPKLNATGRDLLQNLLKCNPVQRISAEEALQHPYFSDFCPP
T1 sequence (Q15078 99-307 partner limits assumed): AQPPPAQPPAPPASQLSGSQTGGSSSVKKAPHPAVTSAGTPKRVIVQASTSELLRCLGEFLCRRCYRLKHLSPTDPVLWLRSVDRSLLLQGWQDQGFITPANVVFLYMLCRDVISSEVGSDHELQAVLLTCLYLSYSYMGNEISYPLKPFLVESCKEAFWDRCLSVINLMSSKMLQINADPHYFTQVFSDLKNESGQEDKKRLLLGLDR
T3 sequence (P49759 whole entry): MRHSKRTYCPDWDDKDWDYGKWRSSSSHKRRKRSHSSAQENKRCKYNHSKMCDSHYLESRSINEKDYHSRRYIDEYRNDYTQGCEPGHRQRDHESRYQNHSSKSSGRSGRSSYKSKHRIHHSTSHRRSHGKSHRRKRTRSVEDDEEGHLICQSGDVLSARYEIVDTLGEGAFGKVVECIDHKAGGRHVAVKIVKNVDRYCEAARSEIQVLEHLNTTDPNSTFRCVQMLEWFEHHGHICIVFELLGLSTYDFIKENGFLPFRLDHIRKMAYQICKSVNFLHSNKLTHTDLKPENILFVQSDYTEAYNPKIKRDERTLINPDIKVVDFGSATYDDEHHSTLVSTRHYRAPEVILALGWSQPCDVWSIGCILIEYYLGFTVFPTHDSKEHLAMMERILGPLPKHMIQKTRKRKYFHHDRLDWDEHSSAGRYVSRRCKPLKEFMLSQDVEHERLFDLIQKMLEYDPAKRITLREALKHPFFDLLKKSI

As a reminder, the IC50 is the concentration that inhibits the measured activity by half. Regarding `COCCn1cnc2ccc3nc(C(=N)OC)sc3c2c1=O` [Compound 12b, Methyl 8-(2-methoxyethyl)-9-oxo-8,9-dihydrothiazolo[5,4-f]quinazoline-2-carbimidate], the IC50 against CDK5/p25 (setting [5]) is greater than 10 µM; against CK1δ/ε, greater than 10 µM; at DYRK1A [1] (setting [6]), 0.39 µM; on GSK-3α/β it was 1.2 µM; at CLK1 [2], 0.51 µM.
Consider `COC(=N)c1nc2ccc3ncn(CCN(C)C)c(=O)c3c2s1` [Compound 12i, Methyl 8-[(3-dimethylamino)ethyl]-9-oxo-8,9-dihydrothiazolo[5,4-f]quinazoline-2-carbimidate], for which the IC50 on CDK5/p25 (setting [5]) was greater than 10 µM; on CK1δ/ε it was greater than 10 µM; on DYRK1A [1] (setting [6]) it was 1 µM; on GSK-3α/β, 1.8 µM; at CLK1 [2] it was 1.8 µM.
As for `CC(C)n1cnc2ccc3nc(C(=N)OCc4ccccc4)sc3c2c1=O` [Compound 13d, Benzyl 8-isopropyl-9-oxo-8,9-dihydro[1, 3]thiazolo[5,4-f]quinazoline-2-carbimidate], the IC50 on CDK5/p25 (setting [5]) was greater than 10 µM; at CK1δ/ε, greater than 10 µM; on GSK-3α/β, 0.057 µM; on CLK1 [2] it was 0.27 µM.
As for `N=C(OCc1ccccc1)c1nc2ccc3ncn(C4CCCCC4)c(=O)c3c2s1` [Compound 13g, Benzyl 8-cyclohexyl-9-oxo-8,9-dihydrothiazolo[5,4-f]quinazoline-2-carbimidate], the IC50 against CDK5/p25 was greater than 10 µM; on CK1δ/ε, greater than 10 µM; at DYRK1A [1], 0.28 µM; against GSK-3α/β, 0.083 µM; on CLK1 [3], 1.3 µM.
Regarding `CN(C)n1cnc2ccc3nc(C(=N)OCc4ccccc4)sc3c2c1=O` [Compound 13h, Benzyl 8-dimethylamino-9-oxo-8,9-dihydrothiazolo[5,4-f]quinazoline-2-carbimidate], the IC50 was greater than 10 µM against CDK5/p25; greater than 10 µM at CK1δ/ε; 0.21 µM against DYRK1A [1]; 0.15 µM against GSK-3α/β; 1.4 µM against CLK1 [3].
For `CCOC(=N)c1nc2ccc3ncn(C4CC4)c(=O)c3c2s1` [Compound 14a, Ethyl 8-cyclopropyl-9-oxo-8,9-dihydrothiazolo[5,4-f]quinazoline-2-carbimidate], the concentration for half-maximal inhibition (IC50) against CDK5/p25 is greater than 10 µM; at CK1δ/ε, greater than 10 µM; at DYRK1A [1], 0.21 µM; on GSK-3α/β it was 0.2 µM; against CLK1 [3] it was 0.1 µM.
Take `CCOC(=N)c1nc2ccc3ncn(CCOC)c(=O)c3c2s1` [Compound 14b, Ethyl 8-(2-methoxyethyl)-9-oxo-8,9-dihydrothiazolo[5,4-f]quinazoline-2-carboximidoate]: the 50% inhibitory concentration (IC50) against CDK5/p25 was greater than 10 µM; against CK1δ/ε, greater than 10 µM; at DYRK1A [1], 0.82 µM; against GSK-3α/β, 1.2 µM; against CLK1 [3], 1.9 µM.
`CCOC(=N)c1nc2ccc3ncn(CCCOC)c(=O)c3c2s1` [Compound 14c, Ethyl 8-(3-methoxypropyl)-9-oxo-8,9-dihydrothiazolo[5,4-f]quinazoline-2-carboximidoate]: the IC50 against CDK5/p25 was greater than 10 µM; against CK1δ/ε, greater than 10 µM; on DYRK1A [1], 0.37 µM; against GSK-3α/β it was 0.17 µM; at CLK1 [3] it was 0.49 µM.
As to `CCOC(=N)c1nc2ccc3ncn(C4CCCC4)c(=O)c3c2s1` [Compound 14e, Ethyl 8-cyclopentyl-9-oxo-8,9-dihydrothiazolo[5,4-f]quinazoline-2-carbimidate], the 50% inhibitory concentration (IC50) was greater than 10 µM against CDK5/p25; greater than 10 µM at CK1δ/ε; 0.23 µM on DYRK1A [1]; 0.029 µM at GSK-3α/β; 0.78 µM against CLK1 [3].
On to `CC(C)OC(=N)c1nc2ccc3ncn(C4CC4)c(=O)c3c2s1` [Compound 15a, Isopropyl 8-cyclopropyl-9-oxo-8,9-dihydrothiazolo[5,4-f]quinazoline-2-carbimidate], for which the IC50 was greater than 10 µM against CDK5/p25; greater than 10 µM at CK1δ/ε; 0.42 µM against DYRK1A [1]; 0.42 µM against GSK-3α/β; 0.043 µM against CLK1 [3].
With `COCCn1cnc2ccc3nc(C(=N)OC(C)C)sc3c2c1=O` [Compound 15b, Isopropyl 8-(2-methoxyethyl)-9-oxo-8,9-dihydro[1, 3]thiazolo[5,4-f]quinazoline-2-carboximidate], the half-inhibitory concentration (IC50) against CDK5/p25 (setting [5]) is greater than 10 µM; on CK1δ/ε, greater than 10 µM; at DYRK1A [1] (setting [6]), 3.9 µM; against GSK-3α/β it was 2.5 µM; at CLK1 [2], 2.1 µM.
`COCCCn1cnc2ccc3nc(C(=N)OC(C)C)sc3c2c1=O` [Compound 15c, Isopropyl 8-(3-methoxypropyl)-9-oxo-8,9-dihydro[1, 3]thiazolo[5,4-f]quinazoline-2-carboximidate]: the IC50 against CDK5/p25 (setting [5]) is greater than 10 µM; at CK1δ/ε, greater than 10 µM; on DYRK1A [1] (setting [6]) it was 0.95 µM; at GSK-3α/β, 0.27 µM; at CLK1 [2], 1.2 µM.
Take `CCn1cnc2ccc3nc(C(=N)OCc4ccccc4)sc3c2c1=O` [II]: on DYRK1A [4], the “DYRK1A IC50” value is recorded as “micromolar” and the IC50 worked out at 1.5 µM. For the same compound, in the assay on CDK1, the “CDK1 IC50” value is recorded as “micromolar range” and the half-maximal inhibitory concentration (IC50) is 1.3 µM.

These data come from PMC6273584, “Synthesis of Thiazolo[5,4-f]quinazolin-9(8H)-ones as Multi-Target Directed Ligands of Ser/Thr Kinases” (Molecules, 2016).
